# Reference: PubChem BioAssay (NCI)
#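 Five compound concentrations were applied to cells in 96-well plates for 48 hours; endpoints were derived by simple linear interpolation of the resulting dose-response curve. The concentration for full growth arrest is given as TGI.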
# Tests used:
# Assay in all cases: growth of human tumour cells (NCI), 48 h
# [1] = test system: UO-31 renal
# [2] = test system: SF-295 CNS
# [3] = test system: SK-MEL-28 melanoma
# [4] = test system: M14 melanoma
# [5] = test system: OVCAR-4 ovarian
# [6] = test system: SF-268 CNS
# [7] = test system: MOLT-4 leukemia
# [8] = test system: SN12C renal
# [9] = test system: T-47D breast
# [10] = test system: TK-10 renal
# [11] = test system: IGROV1 ovarian
# [12] = test system: NCI/ADR-RES ovarian
# [13] = test system: SW-620 colon
# [14] = test system: MDA-MB-435
# [15] = test system: SNB-75 CNS
# [16] = test system: HT29 colon
# [17] = test system: OVCAR-5 ovarian
# [18] = test system: SK-OV-3 ovarian
# [19] = test system: CCRF-CEM leukemia
# [20] = test system: RXF 393 renal
# [21] = test system: UACC-62 melanoma
# [22] = test system: COLO 205 colon
# [23] = test system: NCI-H23 lung
# [24] = test system: HL-60(TB) leukemia
# [25] = test system: HOP-92 NSCLC
# [26] = test system: MCF7 breast
# [27] = test system: HCT-116 colon
# [28] = test system: HCT-15 colon
# [29] = test system: SF-539 CNS
# [30] = test system: NCI-H226 lung
# [31] = test system: MDA-MB-231 breast
# [32] = test system: UACC-257 melanoma
# [33] = test system: ACHN renal
# [34] = test system: DU-145 prostate
# [35] = test system: HOP-62 NSCLC
# [36] = test system: A549 NSCLC
# [37] = test system: EKVX NSCLC
# [38] = test system: NCI-H522 lung
# [39] = test system: MDA-N
# [40] = test system: U251 CNS
# [41] = test system: OVCAR-3 ovarian
# [42] = test system: OVCAR-8 ovarian
# [43] = test system: SK-MEL-2 melanoma
# [44] = test system: LOX IMVI melanoma
# [45] = test system: SK-MEL-5 melanoma
# [46] = test system: BT-549 breast
# [47] = test system: KM12 colon
# [48] = test system: PC-3 prostate
# [49] = test system: SR leukemia
# [50] = test system: NCI-H460 lung
# [51] = test system: A498 renal
# [52] = test system: HS 578T breast
# [53] = test system: RPMI-8226 leukemia
# [54] = test system: 786-0 renal
# [55] = test system: K-562 leukemia
# [56] = test system: SNB-19 CNS
# [57] = test system: CAKI-1 renal
# [58] = test system: MALME-3M melanoma
# [59] = test system: HCC-2998 colon
# [60] = test system: XF 498 CNS
# [61] = test system: M19-MEL melanoma
# [62] = test system: KM20L2 colon
# [63] = test system: LXFL 529 NSCLC
# [64] = test system: DMS 273 small cell lung
# [65] = test system: DLD-1 colon
# [66] = test system: SNB-78 CNS
# [67] = test system: DMS 114 small cell lung
structure (smiles),measurement,setting,value
CN1CCN2CCN(C)CCN(CC1)CC2,TGI,[1],> 100 µM
same,TGI,[2],> 100 µM
same,TGI,[3],> 100 µM
same,TGI,[4],> 100 µM
same,TGI,[5],> 100 µM
same,TGI,[6],> 100 µM
same,TGI,[7],> 100 µM
same,TGI,[8],> 100 µM
same,TGI,[9],> 100 µM
same,TGI,[10],> 100 µM
same,TGI,[11],> 100 µM
same,TGI,[12],> 100 µM
same,TGI,[13],> 100 µM
same,TGI,[14],> 100 µM
same,TGI,[15],> 100 µM
same,TGI,[16],> 100 µM
same,TGI,[17],> 100 µM
same,TGI,[18],> 100 µM
same,TGI,[19],> 100 µM
same,TGI,[20],> 100 µM
same,TGI,[21],> 100 µM
same,TGI,[22],> 100 µM
same,TGI,[23],> 100 µM
same,TGI,[24],> 100 µM
same,TGI,[25],> 100 µM
same,TGI,[26],> 100 µM
same,TGI,[27],> 100 µM
same,TGI,[28],> 100 µM
same,TGI,[29],> 100 µM
same,TGI,[30],> 100 µM
same,TGI,[31],> 100 µM
same,TGI,[32],> 100 µM
same,TGI,[33],> 100 µM
same,TGI,[34],> 100 µM
same,TGI,[35],> 100 µM
same,TGI,[36],> 100 µM
same,TGI,[37],> 100 µM
same,TGI,[38],> 100 µM
same,TGI,[39],> 100 µM
same,TGI,[40],> 100 µM
same,TGI,[41],> 100 µM
same,TGI,[42],> 100 µM
same,TGI,[43],> 100 µM
same,TGI,[44],> 100 µM
same,TGI,[45],> 100 µM
same,TGI,[46],> 100 µM
same,TGI,[47],> 100 µM
same,TGI,[48],> 100 µM
same,TGI,[49],> 100 µM
same,TGI,[50],> 100 µM
same,TGI,[51],> 100 µM
same,TGI,[52],> 100 µM
same,TGI,[53],> 100 µM
same,TGI,[54],> 100 µM
same,TGI,[55],> 100 µM
same,TGI,[56],> 100 µM
same,TGI,[57],> 100 µM
CCOC(=O)C1=CN(Cc2ccccc2)C2ON=C(c3ccc(Cl)cc3)C2C1 (centres undefined),TGI,[1],52.5 µM
same,TGI,[2],> 67 µM
same,TGI,[3],> 71.8 µM
same,TGI,[4],> 66.9 µM
same,TGI,[5],> 77.8 µM
same,TGI,[6],> 66.3 µM
same,TGI,[7],> 100 µM
same,TGI,[8],> 65.4 µM
same,TGI,[9],15.2 µM
same,TGI,[10],> 81.3 µM
same,TGI,[11],> 50.5 µM
same,TGI,[12],> 72.3 µM
same,TGI,[13],> 65.7 µM
same,TGI,[14],> 79.5 µM
same,TGI,[15],> 72.5 µM
same,TGI,[16],> 71.4 µM
same,TGI,[17],> 68.7 µM
same,TGI,[18],> 85.9 µM
same,TGI,[19],> 100 µM
same,TGI,[20],> 67.6 µM
same,TGI,[21],> 69.2 µM
same,TGI,[22],> 64.1 µM
same,TGI,[23],> 66.8 µM
same,TGI,[24],> 47.1 µM
same,TGI,[25],> 100 µM
same,TGI,[26],> 64.6 µM
same,TGI,[27],> 61.9 µM
same,TGI,[28],> 47.2 µM
same,TGI,[29],> 68.2 µM
same,TGI,[30],> 74.3 µM
same,TGI,[31],> 61.6 µM
same,TGI,[32],> 66.8 µM
same,TGI,[33],> 65.2 µM
same,TGI,[34],> 70 µM
same,TGI,[58],> 71.8 µM
same,TGI,[59],> 100 µM
same,TGI,[35],> 67.7 µM
same,TGI,[36],> 59.6 µM
same,TGI,[37],> 65.1 µM
same,TGI,[38],> 49.6 µM
same,TGI,[39],> 68.9 µM
same,TGI,[40],30.7 µM
same,TGI,[41],> 67.1 µM
same,TGI,[42],> 67.4 µM
same,TGI,[43],38.6 µM
same,TGI,[44],> 74.2 µM
same,TGI,[45],> 65 µM
same,TGI,[46],> 56.4 µM
same,TGI,[47],> 66.5 µM
same,TGI,[48],> 53.5 µM
same,TGI,[49],97.4 µM
same,TGI,[50],> 65 µM
same,TGI,[51],> 56.8 µM
same,TGI,[52],21.7 µM
same,TGI,[53],> 100 µM
same,TGI,[54],> 69.5 µM
same,TGI,[55],> 100 µM
same,TGI,[56],> 100 µM
same,TGI,[57],> 85.1 µM
CCCCCCCCC[C@@H]1C[C@H](O)[C@H](Cc2ccccc2)N1C(=O)OC(C)(C)C,TGI,[1],27.4 µM
same,TGI,[2],30.1 µM
same,TGI,[3],34.9 µM
same,TGI,[4],38.4 µM
same,TGI,[60],37 µM
same,TGI,[5],33 µM
same,TGI,[6],34.6 µM
same,TGI,[61],30.9 µM
same,TGI,[7],> 100 µM
same,TGI,[8],31 µM
same,TGI,[10],29.2 µM
same,TGI,[11],33.3 µM
same,TGI,[13],38.4 µM
same,TGI,[15],38.1 µM
same,TGI,[16],31.5 µM
same,TGI,[17],28.5 µM
same,TGI,[18],39 µM
same,TGI,[62],34.5 µM
same,TGI,[19],55.9 µM
same,TGI,[20],32.2 µM
same,TGI,[21],33.3 µM
same,TGI,[22],31.1 µM
same,TGI,[23],31.6 µM
same,TGI,[24],48.7 µM
same,TGI,[63],30.9 µM
same,TGI,[25],28.9 µM
same,TGI,[27],31.9 µM
same,TGI,[28],33.9 µM
same,TGI,[29],37.2 µM
same,TGI,[64],32.8 µM
same,TGI,[32],30.6 µM
same,TGI,[33],30.8 µM
same,TGI,[58],34.5 µM
same,TGI,[65],33.8 µM
same,TGI,[59],27.8 µM
same,TGI,[35],34.9 µM
same,TGI,[36],32.6 µM
same,TGI,[37],33.5 µM
same,TGI,[38],30 µM
same,TGI,[40],30.2 µM
same,TGI,[41],34.6 µM
same,TGI,[42],34.3 µM
same,TGI,[43],30.3 µM
same,TGI,[45],33.1 µM
same,TGI,[47],35.2 µM
same,TGI,[66],41.3 µM
same,TGI,[49],46.2 µM
same,TGI,[51],33.7 µM
same,TGI,[67],32.4 µM
same,TGI,[53],63.3 µM
same,TGI,[55],> 100 µM
same,TGI,[56],33.5 µM
same,TGI,[57],38.2 µM
